Target: T1, Recombinant human mPGES-1 (Homo sapiens, UniProt O14684)
T1 construct: made in house; host or cells: CHO cells (crude microsomal fractions)
T1 sequence (O14684 1-152): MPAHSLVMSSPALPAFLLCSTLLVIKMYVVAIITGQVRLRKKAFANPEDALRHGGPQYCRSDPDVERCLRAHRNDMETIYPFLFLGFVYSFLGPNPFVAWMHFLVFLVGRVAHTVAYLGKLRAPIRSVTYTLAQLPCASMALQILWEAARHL
Assay: In-vitro screening of mPGES-1 inhibitors (inhibition of PGE2 formation from PGH2, HTRF detection)
Format: biochemical
Conditions: mPGES-1 enzyme; for inhibition at 1 µM: 1 μM test compound, read-out: Percentage inhibition at 1 μM; for inhibition at 10 µM: 10 μM test compound, read-out: Percentage inhibition at 10 μM; for IC50: class symbols
Source text: In-Vitro Protocol for Screening of mPGES-1 Inhibitors: mPGES-1 (Microsomal prostaglandin E synthase-1) is a microsomal enzyme that converts endoperoxide substrate PGH2 (prostaglandin H2) to product PGE2 (prostaglandin E2) by isomerization in the presence of reduced glutathione (GSH). mPGES-1 inhibitors were screened by assessing their ability to inhibit formation of PGE2 from PGH2 in the presence of mPGES-1 using an anti-PGE2 antibody based detection method. Recombinant human mPGES-1 was generated in-house by expression in CHO cells (Ouellet M et al. (2002), Protein Expression and Purification 26: 489-495). The assay was set up using crude microsomal fractions at a protein concentration of 40-60 μg/mL. Test compounds were prepared in 100% dimethyl sulfoxide (DMSO) to obtain 20 mM stock solution and then diluted using assay buffer comprising 0.1 M Potassium phosphate buffer with 2 mM EDTA. The final concentration of DMSO in the reaction was 0.5% (v/v). Negative controls were comprised of all assay reagents except the enzyme. Positive controls were comprised of the enzyme reaction in the absence of any inhibitor. Test compounds were incubated for 10 minutes in assay buffer containing 2.5 mM GSH and mPGES-1 enzyme followed by addition of PGH2 at a concentration of 15 μM for 1 minute. The reaction was stopped by addition of Stannous chloride (11 mg/ml) and PGE2 levels were measured ([…] et al. (2005), Journal of Biomolecular Screening 10(6) 599-605; Goedken R E et al. (2008), Journal of Biomolecular Screening 13 (7): 619-625) by HTRF kit (CisBio)). Inhibition of mPGES-1 enzyme activity was measured using the percent of reaction occurring in the positive control. Concentration response curves were plotted using percent inhibition of maximum enzyme reaction. The IC50 value was calculated from the concentration response curve by nonlinear regression analysis using GraphPad PRISM software.

| SMILES | inhibition at 1 µM (crude microsomal fractions) [%] | inhibition at 10 µM (crude microsomal fractions) [%] | inhibition at 3 µM (3 μM test compound, crude microsomal fractions, read-out: Percentage inhibition at 3 μM) [%] | IC50 [µM] |
| --- | --- | --- | --- | --- |
| [O-][S+]1NC(c2c(F)cccc2Cl)=NN1c1ccc(Br)cc1 (stereo not drawn) [Example-1, 2-(4-Bromophenyl)-4-(2-chloro-6-fluorophenyl)-2,5-dihydro-1,2,3,5-thiatriazole-1-oxide] | 9.32 | 68.2 |  |  |
| O=c1[nH]c(-c2c(F)cccc2Cl)nn1-c1ccc(-c2ccc(C(F)(F)F)nc2)cc1 [Example-2, 5-(2-Chloro-6-fluorophenyl)-2-{4-[6-(trifluoromethyl)pyridin-3-yl]phenyl}-2,4-dihydro-3H-1,2,4-triazol-3-one] | 18 | 19 |  |  |
| O=c1[nH]c(-c2c(F)cccc2Cl)nn1-c1ccc(C#Cc2ccccc2C(F)(F)F)cc1 [Example-3, 5-(2-Chloro-6-fluorophenyl)-2-(4-{[2-(trifluoromethyl)phenyl]ethynyl}phenyl)-2,4-dihydro-3H-1,2,4-triazol-3-one] | 88.9 |  | 96.8 | < 0.05 |
| Cc1csc(-c2ccc(-n3nc(-c4c(F)cccc4-c4cc(C)cs4)[nH]c3=O)cc2)c1 [Example-4, 5-[2-Fluoro-6-(4-methylthiophen-2-yl)phenyl]-2-[4-(4-methylthiophen-2-yl)phenyl]-2,4-dihydro-3H-1,2,4-triazol-3-one] | 46.4 | 69.7 |  |  |
| O=c1[nH]c(-c2c(F)cccc2Cl)nn1-c1ccc(C#Cc2ccc(F)nc2)cc1 [Example-5, 5-(2-Chloro-6-fluorophenyl)-2-{4-[(6-fluoropyridin-3-yl)ethynyl]phenyl}-2,4-dihydro-3H-1,2,4-triazol-3-one] | 91.8 | 86.2 |  | < 0.05 |
| O=c1[nH]c(-c2c(F)cccc2Cl)nn1-c1ccc(C#Cc2ccc(Cl)cc2F)cc1 [Example-6, 5-(2-Chloro-6-fluorophenyl)-2-{4-[(4-chloro-2-fluorophenyl)ethynyl]phenyl}-2,4-dihydro-3H-1,2,4-triazol-3-one] | 83.9 | 87.7 |  | < 0.05 |
| O=c1[nH]c(-c2c(F)cccc2Cl)nn1-c1ccc(C#Cc2ccc(C(F)(F)F)cc2Cl)cc1 [Example-7, 5-(2-Chloro-6-fluorophenyl)-2-(4-{[2-chloro-4-(trifluoromethyl)phenyl]ethynyl}phenyl)-2,4-dihydro-3H-1,2,4-triazol-3-one] | 89.1 | 95.2 |  | < 0.05 |
| O=c1[nH]c(-c2c(F)cccc2Cl)nn1-c1ccc(-c2cccc(OC(F)(F)F)c2)cc1 [Example-8, 5-(2-Chloro-6-fluorophenyl)-2-[3′-(trifluoromethoxy)biphenyl-4-yl]-2,4-dihydro-3H-1,2,4-triazol-3-one] | 84.9 | 87.2 |  | 0.05 to 0.1 |
| O=c1[nH]c(-c2c(F)cccc2Cl)nn1-c1ccc(Nc2cccc(C(F)(F)F)c2)cc1 [Example-9, 5-(2-Chloro-6-fluorophenyl)-2-(4-{[3-(trifluoromethyl)phenyl]amino}phenyl)-2,4-dihydro-3H-1,2,4-triazol-3-one] | 1.53 | 23.2 |  |  |
| O=c1[nH]c(-c2c(F)cccc2Cl)nn1-c1ccc(C#Cc2cc(Cl)ccc2Cl)cc1 [Example-10, 5-(2-Chloro-6-fluorophenyl)-2-{4-[(2,5-dichlorophenyl)ethynyl]phenyl}-2,4-dihydro-3H-1,2,4-triazol-3-one] | 84.9 | 91.2 |  | < 0.05 |
| COCCCNc1nc(-c2c(F)cccc2Cl)nn1-c1ccc(Br)cc1 [Example-11, 1-(4-Bromophenyl)-3-(2-chloro-6-fluorophenyl)-N-(3-methoxypropyl)-1H-1,2,4-triazol-5-amine] | 2.34 | 71.7 |  |  |
| O=c1[nH]c(-c2c(F)cccc2Cl)nn1-c1ccc(C#Cc2cccc(Cl)c2F)cc1 [Example-12, 1-(4-((3-Chloro-2-fluorophenyl)ethynyl)phenyl)-3-(2-chloro-6-fluorophenyl)-1H-1,2,4-triazol-5(4H)-one] | 84.8 | 87.5 |  | < 0.05 |
| O=c1[nH]c(-c2c(F)cccc2Cl)nn1-c1ccc(C#Cc2ccc(C(F)(F)F)cn2)cc1 [Example-13, 5-(2-Chloro-6-fluorophenyl)-2-(4-{[5-(trifluoromethyl)pyridin-2-yl]ethynyl}phenyl)-2,4-dihydro-3H-1,2,4-triazol-3-one] | 86.3 | 90.4 |  | > 0.1 |
| O=c1[nH]c(-c2c(F)cccc2Cl)nn1-c1ccc(C#Cc2ccncc2Cl)cc1 [Example-14, 5-(2-Chloro-6-fluorophenyl)-2-{4-[(3-chloropyridin-4-yl)ethynyl]phenyl}-2,4-dihydro-3H-1,2,4-triazol-3-one] | 96 | 95.8 |  | 0.05 to 0.1 |
| O=c1[nH]c(-c2c(F)cccc2Cl)nn1-c1ccc(C#Cc2cnc(N3CCOCC3)nc2)cc1 [Example-15, 3-(2-Chloro-6-fluorophenyl)-1-(4-((2-morpholinopyrimidin-5-yl)ethynyl)phenyl)-1H-1,2,4-triazol-5(4H)-one] | 64.2 | 83.8 |  |  |

The next lines start with the values.

| inhibition at 1 µM (crude microsomal fractions) [%] | inhibition at 10 µM (crude microsomal fractions) [%] | inhibition at 3 µM (3 μM test compound, crude microsomal fractions, read-out: Percentage inhibition at 3 μM) [%] | IC50 [µM] | SMILES |
| --- | --- | --- | --- | --- |
| 40.9 | 92.3 |  |  | O=c1[nH]c(-c2c(F)cccc2Cl)nn1-c1ccc(C#Cc2ccc(N3CCOCC3)nc2)cc1 [Example-16, 5-(2-Chloro-6-fluorophenyl)-2-(4-{[6-(morpholin-4-yl)pyridin-3-yl]ethynyl}phenyl)-2,4-dihydro-3H-1,2,4-triazol-3-one] |
| 2.52 | 44.1 |  |  | O=C(NCC1CC1)c1ccc(-n2nc(-c3c(F)cccc3Cl)[nH]c2=O)cc1 [Example-17, 4-[3-(2-Chloro-6-fluorophenyl)-5-oxo-4,5-dihydro-1H-1,2,4-triazol-1-yl]-N-(cyclopropylmethyl)benzamide] |
| 56.2 | 98.1 |  |  | O=C(NCc1ccccc1C(F)(F)F)c1ccc(-n2nc(-c3c(F)cccc3Cl)[nH]c2=O)cc1 [Example-18, 4-[3-(2-Chloro-6-fluorophenyl)-5-oxo-4,5-dihydro-1H-1,2,4-triazol-1-yl]-N-[2-(trifluoromethyl)benzyl]benzamide] |
| 5.11 | 29.7 |  |  | COc1ccc(-n2nc(-c3c(F)cccc3Cl)[nH]c2=O)cc1C(=O)NCC1CC1 [Example-19, 5-[3-(2-Chloro-6-fluorophenyl)-5-oxo-4,5-dihydro-1H-1,2,4-triazol-1-yl]-N-(cyclopropylmethyl)-2-methoxybenzamide] |
| 22.4 | 87.4 |  |  | COc1ccc(-n2nc(-c3c(F)cccc3Cl)[nH]c2=O)cc1C(=O)NCc1ccccc1C(F)(F)F [Example-20, 5-[3-(2-Chloro-6-fluorophenyl)-5-oxo-4,5-dihydro-1H-1,2,4-triazol-1-yl]-2-methoxy-N-[2-(trifluoromethyl)benzyl]benzamide] |
| 76.1 | 91.8 |  |  | COc1ccc(-n2nc(-c3c(F)cccc3Cl)[nH]c2=O)cc1C(=O)NC1(c2ccccc2C(F)(F)F)CC1 [Example-21, 5-[3-(2-Chloro-6-fluorophenyl)-5-oxo-4,5-dihydro-1H-1,2,4-triazol-1-yl]-2-methoxy-N-{1-[2-(trifluoromethyl)phenyl]cyclopropyl}benzamide] |
| 39.3 | 99.7 |  |  | O=C(NC1(c2ccc(C(F)(F)F)cc2)CC1)c1ccc(-n2nc(-c3c(F)cccc3Cl)[nH]c2=O)cc1 [Example-22, 4-[3-(2-Chloro-6-fluorophenyl)-5-oxo-4,5-dihydro-1H-1,2,4-triazol-1-yl]-N-{1-[4-(trifluoromethyl)phenyl]cyclopropyl}benzamide] |
| 13.2 | 52.9 |  |  | COc1ccc(-n2nc(-c3c(F)cccc3Cl)[nH]c2=O)cc1C(=O)NC1(c2ccc(C(F)(F)F)cc2)CC1 [Example-23, 5-[3-(2-Chloro-6-fluorophenyl)-5-oxo-4,5-dihydro-1H-1,2,4-triazol-1-yl]-2-methoxy-N-[1-[4-(trifluoromethyl)phenyl]cyclopropyl]benzamide] |
| 71 | 83.1 |  |  | O=C(NC1(c2ccccc2C(F)(F)F)CC1)c1ccc(-n2nc(-c3c(F)cccc3Cl)[nH]c2=O)cc1 [Example-24, 4-(3-(2-Chloro-6-fluorophenyl)-5-oxo-4,5-dihydro-1H-1,2,4-triazol-1-yl)-N-(1-(2-(trifluoromethyl)phenyl)cyclopropyl)benzamide] |
